# Measurements reported in paper PMC4082028 (Biochemistry, 2013).
# Target: Aβ40 (amyloid β-protein, monomer) (Homo sapiens, UniProt P05067)
# Assay: […]-1H HSQC NMR titration
# Type: binding
# Sequence of Aβ40 (amyloid β-protein, monomer) (P05067 672-711 limits assumed): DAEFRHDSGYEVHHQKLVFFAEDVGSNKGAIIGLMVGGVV
compound,measurement,value
"COc1ccc(/C=C/C(=O)Nc2ccccc2C(=O)O)cc1OC [tranilast, N-[3,4-Dimethoxycinnamoyl]-anthranilic acid]",Kd,310 ± 130 µM
